Assay results as given in a compilation of properties of binary mixtures (doi:10.1016/j.molliq.2020.113742).

Assay: xn = mol fraction of the nth substance listed

CCCC[N+]1(C)CCCC1.F[P-](F)(F)(F)(F)F + CCCC[n+]1cccc(C)c1.F[P-](F)(F)(F)(F)F
viscosity [mPa·s], 101.3 kPa
Conditions	x2 = 0.2	x2 = 0.3	x2 = 0.4	x2 = 0.5	x2 = 0.6	x2 = 0.7	x2 = 0.8	x2 = 0.9
303.13 K	–	–	746	–	–	–	–	–
308.15 K	–	–	–	480	427	–	–	–
313.15 K	–	448	–	352	313	277	–	–
318.15 K	–	334	–	–	234	208	190	–
323.15 K	–	253	220	199	178	159	146	130
328.15 K	221	195	–	153	138	–	113	–
333.15 K	173	153	133	121	–	97	89	80
338.15 K	138	121	106	–	87	78	71	65
343.15 K	–	98	–	78	–	63	58	53
348.15 K	90	79	70	63	–	52	48	43
353.15 K	74	65	–	53	48	43	40	36
358.15 K	–	55	–	44	40	36	33	30
363.15 K	51	46	41	–	–	31	28	26

CCCC[N+]1(C)CCCCC1.F[P-](F)(F)(F)(F)F + CCCC[N+]1(C)CCCC1.F[P-](F)(F)(F)(F)F
viscosity [mPa·s], 102 kPa
Conditions	353.15 K	363.15 K	373.15 K	383.15 K
x1 = 0.3	126	85	58	–
x1 = 0.5	–	101	68	48
x1 = 0.7	194	125	84	59
